# Tests used:
# [1] = biological target: T1, CnTDH (Cupriavidus necator, UniProt Q0K312, V11I/R67K/G69K/G263D/Q265E/D282Q, form not given); assay: NADH formation at […] nm, Michaelis-Menten fit; assay type: biochemical; conditions: 0.1 M Gly-KOH pH 10.0; 2.5 mM NAD+; 0.0-40 mM L-threonine
# T1 construct: gene H16_B0820; recombinant in E. coli BL21(DE3), His-tag (HisTrap; pET15b NdeI/BamHI for the designed variants), size-exclusion purified
# [2] = biological target: T2, CnTDH (Cupriavidus necator, UniProt Q0K312, N14C/R31N/A62E/A160N/H177Y/A291K/A310K, form not given); assay: NADH formation at […] nm, Michaelis-Menten fit; assay type: biochemical; conditions: 0.1 M Gly-KOH pH 10.0; 2.5 mM NAD+; 0.0-40 mM L-threonine
# T2 construct: gene H16_B0820; recombinant in E. coli BL21(DE3), His-tag (HisTrap; pET15b NdeI/BamHI for the designed variants), size-exclusion purified
smiles,measurement,setting,value
C[C@@H](O)[C@H](N)C(=O)O [L-threonine],Km,[1],11.6 ± 1.4 mM
same,Km,[2],17.4 ± 1.9 mM

# Reference: PMC12798769, “GArNet: A Genetic Algorithm-Based Protein Redesign Approach to Optimize Mutation Combinations Informed by Network Theory” (Journal of Chemical Information and Modeling, 2025)
